# From patent US20100303933A1, “IMMUNOPOTENTIATING COMPOSITION FROM LABISIA PUMILA EXTRACT” (HOLISTA BIOTECH SDN. BHD., priority 2007, published 2010)
# Marks after values point to notes of the source that are not given here.
# How the values were obtained:
# [1] = tested on: peritoneal murine macrophages; assay: Phagocytic response in vitro: heat killed Candida albicans ingested by peritoneal macrophages; type: cell-based; conditions: 10 μg/ml (Levamisole)
# Description: Peritoneal macrophage cells (2×10^6) were allowed to adhere to glass cover slip for 90 minutes at 37° C. in 5% CO2 incubator (95% humidity). Simultaneously heat killed Candida albicans cells (100° C., 60 minutes) were opsonized for 90 minutes with 20% autologous serum to promote phagocytosis. The samples were washed with PBS and immediately evaluated microscopically. The percentage and average number of Candida albicans cells (heat killed) ingested by peritoneal murine macrophages was calculated.
# skin allograft = assay: Skin allograft rejection (CMI response); type: in vivo, mice; conditions: 2.5 mg/kg p.o. (Levamisole)
# Description: Skin allograft rejection: Mice were employed for the skin transplantation that were administered LPPM/A003 daily for 7 days and the graft rejection time (GRT) was recorded by daily observation of the epithelial survival.
# [2] = tested on: reticuloendothelial system; assay: Phagocytic response in vivo: clearance of carbon particles from circulation; parameters: species or system mice; conditions: dose 2.5 mg/ml p.o. (Levamisole)
# Description: The phagocytic function of the reticuloendothelial system was assayed in groups of six mice each by injecting i.v. 160 mg/kg of 1.6% suspension of gelatin stabilized carbon particles of […] size (Atal et al., 1986). Blood samples were collected before and at intervals varying between 2 to 90 min after carbon injection. An aliquot (10 μL) of blood samples were lysed with 2 mL of 0.1% acetic acid and the transparency determined spectrophotometrically at 675 nm (Uvikon 810, spectrophotometer, Kontron Ltd, Switzerland) as per the method of Hudson and Hay (1980).
smiles,measurement,setting,value
c1ccc([C@H]2CN3CCSC3=N2)cc1 [Levamisole],% Phagocytosis In vitro study Mean ± S.E.,[1],43.11 ± 2.92 %
same,Rejection Time Days Mean ± S.E.,skin allograft,8.50 ± 0.22 days
same,Graft Rejection (Percent),skin allograft; ↑ hastened,34.61^b ↑ Percent
same,% Phagocytosis Ex -In vivo study Mean ± S.E.,[2],1.78 ± 0.11 %
